Where a SMILES comes first, the peptide text is derived from it. The star is where a group is joined. Cbz = O=C(OCc1ccccc1)*; OtBu = CC(C)(C)O*
Experiments:
[1] = system: Mice Calvarial osteoblasts (MCOs); assay: Mineralization assay (Alizarin red-S); format: cell-based; settings: 10 nM, 21 days, vs control group
Protocol: Mineralization assay was carried out to assess the mineralizing ability and thus bone formation of osteoblasts cells. […] At the end of the experiment, the cells were washed with PBS and fixed with paraformaldehyde (4%) in PBS for 15 minutes. Alizarin red-S stain was used for staining mineralized nodules, followed by extraction of the stain using 10% acetic acid and 10% ammonium hydroxide for colorimetric quantification at 405 nm.

20 S proteasome = 20 S proteasome (Rattus norvegicus, UniProt P28075); assay: 20 S proteasome activity assay in calvarial osteoblast cells; settings: for inhibition of 20 S proteasomal activity: calvarial osteoblast cells
[2] = system: Mice calverial osteoblast; assay: Apoptosis assay (Annexin V/PI, FACS) in serum deprived MCOs; format: cell-based; settings: 10 nM, 24 h
Protocol: Annexin V/PI staining for fluorescence-activated cell sorting (FACS) analysis was carried out using Calbiochem Annexin V-FITC Apoptosis Detection Kit (Calbiochem, USA) according to manufacturer's instructions.

[3] = Mundy GR et al, 2005; cited from earlier work
Smads = settings: Ito y et al, 2011; cited from earlier work
Mouse bone marrow cells = assay: Osteoclast culture, real-time expression of TRAP and RANK; format: cell-based; settings: bone marrow cultures with MCSF and RANKL, 6 days, vs control vehicle
Protocol: In vitro osteoclastogenesis was performed using standard protocol. Mouse bone marrow cells were flushed from femur using alpha-MEM. Cells were seeded in flask overnight in Osteoclast medium (alpha MEM, 10% FCS, antibiotic, EBSS, 10 ng/ml MCSF). […] The medium was replaced after every 48 hours. After 6 days of culture, the cells were washed with PBS and then fixed in 4% paraformaldehyde or used for RNA extraction using TRIZOL for analysis of TRAP, RANK mRNA levels by real-time PCR. Fixed cells were followed by TRAP staining using the standardized protocol.

[4] = system: Mice Calvarial osteoblasts (MCOs); assay: Alkaline phosphatase (ALP) assay in mice calvarial osteoblasts; format: cell-based; settings: for ALP production / ALP activity compared with control: osteoblast differentiation medium, 1 pM to 1 μM; for dose most effective in stimulating ALP activity: dose range 1 pM to 1 μM
Protocol: For each experiment, 1 to 2 day old […] were used to harvest 20 to 35 calvaria at room temperature (25° C.). Briefly, individual calvaria were surgically isolated from the skull, the sutures were segregated, and the adherent tissue material was cleaned by gentle scrapping. As described previously, the pooled calvarias were kept for repeated digestion (15 minutes/digestion) with 0.05% trypsin and 0.1% collagenase P to release the cells. First digestion was discarded and cells were collected from the next four digestions. These cells were cultured in a modified essential medium (a-MEM) containing 10% fetal calf serum (FCS) and 1% penicillin/streptomycin (complete growth medium). Cultures of MCOs were allowed to reach 80% confluence for the experiments.
For the measurement of ALP activity, MCOs at approximately 80% confluence were trypsinized, and 2×10^3 cells/well were seeded onto 96-well plates. […] At the end of incubation period, total ALP activity was measured using p-nitrophenylphosphate (PNPP) as substrate, and absorbance was read at 405 nm.

[5] = system: Ovariectomized (OVx) Mice; assay: In vivo efficacy of WFA on ovariectomized (OVx) mice, μCT; set-up: species or system Balb/c mice; settings: doses 1, 5 and 10
Protocol: The intraperitoneal dose for iPTH (40 μg·kg^-1 for 3 days/week) used in this study as known anabolic agent. […] For dynamic histomorphometry measurements each animal was administered intraperitoneally with fluorochromes tetracycline (20 mg·kg^-1) on day 30 […] and calcein (20 mg·kg^-1) on day 60 (8 weeks) after the commencement of various treatments. After 8 weeks of treatment, all mice were euthanized and autopsied to collect bones (i.e., tibias and femurs) for measurement of bone parameter. […] BMCs were cultured in bone marrow differentiation medium to induce mineralization for 18 days. Mineralization was quantified as described. Alizarin red S stain was used for staining mineralized nodules, followed by extraction of the stain for quantification. […] The plasma samples were analyzed by HPLC according to reported method with slight modification. Sky Scan 1076 μCT scanner (Aartselaar, Belgium) was used to carryout μCT scanning of excised bones as described before. The bone samples were scanned at a resolution of 9 μm and reconstruction was done using the Sky Scan Nrecon software. The X-ray source was set at 50 kV and […], with a pixel size of 9 μm. A hundred projections were acquired over an angul arrange of 180°. […] Trabecular thickness (Tb.Th) and structure mode index (SMI) was calculated according to the method of Hildebrand and Ruegsegger. […]

[6] = system: serum osteocalcin in OVx mice; assay: Bone turnover marker, serum osteocalcin EIA; format: in vivo; settings: 60 days, vs OVx+vehicle
Text: Rat-MID™ Osteocalcin EIA (Immunodiagnostic, UK) performed using serum from treated and vehicle groups using manufacturer's protocol as provided in the kit.

uterus of OVx mice = assay: Estrogenicity studies (uterine weight); format: in vivo; settings: all doses
Protocol: The uterus of each mouse was weighed and then fixed in 4% paraformaldehyde. A middle segment of each uterus was dehydrated in ascending grades of isopropanol, cleared in xylene and sections of about 5 μm thickness was prepared. Haematoxylin and eosin staining was done of 5 μm transverse sections and representative images were captured. Leica Qwin-Semiautomatic Image Analysis software (Leica Microsystems GmbH) was used to measure total uterine area, luminal area and luminal epithelial height.

[7] = system: Mice primary osteoblast cells; assay: Cell proliferation assay (direct cell count and BrdU); format: cell-based; settings: 24 h
Protocol: Mice primary osteoblast cells were plated at a density of 2.5×10^5 cells/ml/well in 12 well plates at 37° C. […] The cells were trypsinized and viable cells were counted with a hemocytometer using trypan blue dye exclusion. Cell counts were performed in duplicate and repeated in three cultures. […] Cell proliferation was determined using BrdU ELISA (from Calbiochem, Darmstadt, Germany) using manufacturer's instructions. For the last 3h of the 24 h stimulation, the, cells were trypsinized and 2000 cells/well were seeded in a-MEM supplemented with 10% fetal bovine serum, and the cells were pulsed with BrdU. Absorbance at dual wavelength of 450-540 nm was measured with a microplate reader.

[8] = system: drill-hole injury in femur of Sham and OVx Balb/c mice; assay: Fracture healing drill-hole study; format: in vivo
Text: Sixty adult Balb/c mice (18-20 g each) were taken and divided into six groups of […] for the study. Each group included 12 animals per group. […] Mice were left for 8 weeks for the OVx mice to develop osteopenia. After 8 weeks, drill-hole injury was created in both sham and OVx groups. In mid femur region the front skin was incised straight and longitudinally 1 cm in length under anesthetic condition. After splitting the muscle, periosteum was stripped to expose the femoral bone surface. A drill-hole injury was made, 1 cm above the knee joint by inserting a drill bit with a diameter of 0.1 mm in the anterior portion of the diaphysis of the bilateral femurs. […] Each animal received intraperitoneal administration of fluorochrome calcein (20 mg·kg^−1) 24 h before autopsy. After 21 days of treatment as described above, all mice were euthanized and autopsied to collect their femurs for the measurement of bone micro architectural parameters at the drill hole site. Bones were embedded in acrylic material and 50 μm sections were made using an Isomet BoneCutter (Buehler, Lake Bluff, Ill. USA) and photographs were taken under confocal microscope LSM 510 Meta, Carl Zeiss, USA) aided with appropriate filters. The intensity of calcein binding, which is an indicator of the amount of new mineral deposition, was calculated using Carl Zeiss A M 4.2 image-analysis software.

[9] = system: Mice Calvarial osteoblasts (MCOs); assay: Quantitative real time PCR of osteogenic genes in MCOs; format: cell-based; settings: 10 nM
Protocol: Cells were homogenized using 1 ml of TRIzol reagent (Invitrogen, Carlsbad, Calif., USA), and total RNA was extracted according to the manufacturer's protocol. cDNA was synthesized using RevertAid™ First Strand cDNA synthesis kit (#K1621 Fermentas, Canada) from 1 μg of total RNA. Quantitative real time PCR amplifications were performed in The LightCycler® 480 Real-Time PCR System (Roche Diagnostics, USA) using LightCycler SYBR Green (Roche Diagnostics, USA) according to the manufacturer's instruction. The sequences of primer sets for Smurf1, Smurf2, RunX2, BMP-2, alkaline phosphatase (ALP), osteocalcin (OCN), Collagen I (Coll) and GAPDH mRNAs, target sites on mRNAs and product sizes by PCR are shown in FIG. 6. The quantity of each sample was normalized using the CT (threshold cycle) value obtained for the GAPDH mRNA amplifications.

CC(C)C[C@H](NC(=O)[C@H](Cc1ccccc1)NC(=O)c1cnccn1)B(O)O [Bzb, Bortezomib, reference compound]
mineralization (Alizarin-S dye extraction) [1]: comparable to Bzb treatment
inhibition of 20 S proteasomal activity (20 S proteasome): comparable to Bzb
apoptosis of serum deprived MCOs ([2]; 0.5% FBS): comparable to standard control Bortizomib (Bzb)

CC[C@H](C)[C@H](NC(=O)[C@H]([C@@H](C)CC)N(C)C(C)=O)C(=O)N[C@H](C(=O)N[C@@H](CC(C)C)C(=O)[C@@]1(C)CO1)[C@@H](C)O [Epoxomicin]
Activity: bone volume and bone formation rate [3]: Increases bone

CC(=O)N[C@@H](CSC(=O)[C@]1([C@@H](O)C(C)C)NC(=O)[C@H](C)[C@@H]1O)C(=O)O [Lactacystin, reference compound]
inhibition of 20 S proteasomal activity (20 S proteasome): significantly inhibits the 20 S proteasomal activity
Activity: activity of Smads (in vitro) (Smads): Increases

CC[C@H](C)[C@H](NC(=O)OCc1ccccc1)C(=O)N[C@@H](CCC(=O)OC(C)(C)C)C(=O)N[C@@H](C)C(=O)N[C@H](C=O)CC(C)C [PSI] (Cbz-IE(OtBu)AL-aldehyde)
Activity: bone volume and bone formation rate [3]: Increases bone

CC1=C(CO)C(=O)O[C@@H]([C@@H](C)[C@H]2CC[C@H]3[C@@H]4C[C@H]5O[C@]56[C@@H](O)C=CC(=O)[C@]6(C)[C@H]4CC[C@]23C)C1 [WFA, Withaferin A]
mRNA levels of TRAP and RANK (Mouse bone marrow cells): significantly reduced mRNA levels of TRAP and RANK
ALP activity compared to Bortizomib ([4]; 10 nM, 48 h): ~3 fold
ALP production / ALP activity compared with control ([4]; 48 h): significantly increased ALP production
dose most effective in stimulating ALP activity [4]: 10 nM
most effective dose (BV/TV, inter-dose comparison) [5]: 10 mg/kg/day
serum osteocalcin (OCN) levels [6]: significant reduction in the levels of OCN
mineralization (Alizarin-S dye extraction) [1]: significant increase in mineralization
earliest time of inhibition of proteasomal 20 S subunit activity (20 S proteasome; 10 nM): 3 h
maximum inhibition of proteasomal 20 S subunit activity (20 S proteasome; 10 nM, at 6 h, compared with positive control): 40-50%
uterine weight (uterus of OVx mice): uterine weight comparable to OVx group
apoptotic cells (early and late) ([2]; serum deprived (0.5% FBS) MCOs): 3%
concentration that maximally stimulated MCO proliferation [7]: 10 nM
osteoblast proliferation (direct cell count and BrdU incorporation) ([7]; vs control vehicle set as 100): concentration dependently stimulated osteoblast proliferation
callus mineralization / bridging of defect ([8]; 5 mg kg-1 d-1, after day 11 post drilling): predominantly occupied mineralized callus, and the defect region was partially bridged
callus mineralization / bridging of defect ([8]; 10 mg kg-1 d-1, compared with 5 mg kg-1 d-1): more increased mineralized callus within the intra medulla region to be remodeled to completely bridge the defect
mineral deposition (intensity of calcein labeling in the drill hole) ([8]; 5 and 10 mg kg-1 d-1, 21 days, vs vehicle): increased mineral deposition
mineral deposition in OVx mice ([8]; OVx mice, 5 and 10 mg kg-1 d-1, vs OVx vehicle): increased mineral deposition in OVx mice
mRNA expression of collagen I [9]: stimulated mRNA expression of collagen I
expression of osteogenic genes RunX2, OCN and Col I ([9]; normalized to GAPDH): increased expression of RunX2, OCN and Col I

CC1=C(C)C(=O)O[C@@H]([C@@H](C)[C@@]2(O)CC[C@H]3[C@@H]4[C@@H]5O[C@@H]5[C@@]5(O)CC=CC(=O)[C@]5(C)[C@H]4CC[C@@]32C)C1 [WN, Withanone]
ALP production / ALP activity compared with control ([4]; 48 h): did not stimulate ALP activity significantly
dose most effective in stimulating ALP activity [4]: 10 nM
mRNA expression of collagen I [9]: stimulated mRNA expression of collagen I

CC1=C(C)C(=O)O[C@@H]([C@](C)(O)[C@H]2CC[C@H]3[C@@H]4[C@@H]5O[C@@H]5[C@@]5(O)CC=CC(=O)[C@]5(C)[C@H]4CC[C@]23C)C1 [WNA, Withanolide A]
ALP production / ALP activity compared with control ([4]; 48 h): significantly increased ALP production
dose most effective in stimulating ALP activity [4]: 10 nM
mRNA expression of collagen I [9]: stimulated mRNA expression of collagen I
